According to ChEMBL document CHEMBL1201862, “PubChem BioAssay data set” (2004):
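Cells were grown in 96-well plates and exposed to each compound for 48 hours at five concentrations; endpoints were interpolated linearly between bracketing concentrations, or set to the highest concentration if not reached. GI50: concentration for 50% inhibition of growth.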 Active and inactive are the calls of the source. No stated cut-off is given here; in the data, active = GI50 up to about 1.1 µM and inactive = higher.

Assays:
Assay in all cases: inhibition of tumour cell growth, NCI panel, 48 h
A498 = system: A498
CCRF-CEM = system: CCRF-CEM
EKVX = system: EKVX
HCT-116 = system: HCT-116
HL-60 = system: HL-60
HOP-62 = system: HOP-62
IGROV-1 = system: IGROV-1
KM12 = system: KM12
M14 = system: M14
MOLT-4 = system: MOLT-4
NCI-H460 = system: NCI-H460
NCI-H522 = system: NCI-H522
OVCAR-5 = system: OVCAR-5
RXF 393 = system: RXF 393
SF-539 = system: SF-539
SK-MEL-5 = system: SK-MEL-5
SK-OV-3 = system: SK-OV-3
SR = system: SR

Measured: GI50

OC1C2C=CCC1CCC2 (stereo not drawn)
inactive: A498 > 100 µM | CCRF-CEM > 100 µM | EKVX > 100 µM | HCT-116 > 100 µM | HL-60 > 100 µM | HOP-62 > 100 µM | IGROV-1 > 100 µM | KM12 > 100 µM | M14 > 100 µM | MOLT-4 > 100 µM | NCI-H460 > 100 µM | NCI-H522 > 100 µM | OVCAR-5 > 100 µM | RXF 393 > 100 µM | SF-539 > 100 µM | SK-MEL-5 > 100 µM | SK-OV-3 > 100 µM | SR > 100 µM

O=C(Cc1ccccc1)Oc1ccc2c(-c3ccccc3)c(C(=O)Nc3ccc(Cl)cc3)c(=O)oc2c1
inactive: A498 > 100 µM | CCRF-CEM > 100 µM | EKVX > 100 µM | HCT-116 > 100 µM | HL-60 > 100 µM | HOP-62 > 100 µM | IGROV-1 > 100 µM | KM12 > 100 µM | M14 > 100 µM | MOLT-4 > 100 µM | NCI-H460 > 100 µM | NCI-H522 > 100 µM | OVCAR-5 > 100 µM | RXF 393 > 100 µM | SF-539 > 100 µM | SK-MEL-5 > 100 µM | SK-OV-3 > 100 µM | SR > 100 µM

Fc1cccc(C2SCc3nc4ccccc4n32)c1F (stereo not drawn)
inactive: A498 42.2 µM | CCRF-CEM 42 µM | EKVX 36.6 µM | HCT-116 48.5 µM | HL-60 16.1 µM | HOP-62 > 100 µM | IGROV-1 73.8 µM | KM12 66.1 µM | M14 62.4 µM | MOLT-4 21.1 µM | NCI-H460 51.5 µM | NCI-H522 37.2 µM | OVCAR-5 > 100 µM | RXF 393 54.2 µM | SF-539 > 100 µM | SK-MEL-5 21.6 µM | SK-OV-3 > 100 µM | SR 28.4 µM

COc1ccccc1NC(=O)C(=O)C(c1cnc2ccc([N+](=O)[O-])cc2n1)[N+](=O)[O-] (stereo not drawn)
inactive: A498 > 100 µM | CCRF-CEM 26 µM | EKVX > 100 µM | HCT-116 > 100 µM | HL-60 19.5 µM | HOP-62 > 100 µM | IGROV-1 > 100 µM | KM12 > 100 µM | M14 78.7 µM | MOLT-4 32.8 µM | NCI-H460 > 100 µM | NCI-H522 8.71 µM | OVCAR-5 > 100 µM | RXF 393 > 100 µM | SF-539 > 100 µM | SK-MEL-5 > 100 µM | SK-OV-3 > 100 µM | SR 45.6 µM

O=C(Cc1ccccc1)C(c1ccccc1)S(=O)(=O)c1ccccc1 (stereo not drawn)
inactive: A498 > 100 µM | CCRF-CEM > 100 µM | EKVX > 100 µM | HCT-116 59.3 µM | HL-60 > 100 µM | HOP-62 > 100 µM | IGROV-1 > 100 µM | KM12 > 100 µM | M14 > 100 µM | MOLT-4 > 100 µM | NCI-H460 > 100 µM | NCI-H522 88.7 µM | OVCAR-5 > 100 µM | RXF 393 67 µM | SF-539 > 100 µM | SK-MEL-5 > 100 µM | SK-OV-3 > 100 µM | SR 69.3 µM

CCOC(=O)NN1C(=O)C(=P(c2ccccc2)(c2ccccc2)c2ccccc2)C(C(=O)OCC)=C1C
inactive: A498 > 100 µM | CCRF-CEM > 100 µM | EKVX > 100 µM | HCT-116 > 100 µM | HL-60 > 100 µM | HOP-62 > 100 µM | IGROV-1 > 100 µM | KM12 > 100 µM | M14 > 100 µM | MOLT-4 > 100 µM | NCI-H460 > 100 µM | NCI-H522 > 100 µM | OVCAR-5 > 100 µM | RXF 393 > 100 µM | SF-539 > 100 µM | SK-MEL-5 > 100 µM | SK-OV-3 > 100 µM | SR > 100 µM
